Reference: patent US6737383B1, “Herbicidal oxadiazolidines” (priority 1999, dated 2004)

What was measured:
bedstraw = test: Test B pre/postemergence bedstraw; type: in vivo, Galium aparine
How it was run: (§1)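 Response is a visual 0-to-10 score relative to untreated plants, where 0 means no effect and 10 means complete control, taken twelve to sixteen days after application. Treatments went onto soil at planting and onto foliage of 1- to 4-leaf plants, using a surfactant-containing non-phytotoxic solvent.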

blackgrass = test: Test B pre/postemergence blackgrass; type: in vivo, Alopecurus myosuroides
How it was run: as §1

surinam grass = test: Test B pre/postemergence surinam grass; type: in vivo, Brachiaria decumbens
How it was run: as §1

cocklebur = test: Test B pre/postemergence cocklebur; type: in vivo, Xanthium strumarium
How it was run: as §1

corn = test: Test B pre/postemergence corn; type: in vivo, Zea mays
How it was run: as §1

crabgrass = test: Test B pre/postemergence crabgrass; type: in vivo, Digitaria sanguinalis
How it was run: as §1

giant foxtail = test: Test B pre/postemergence giant foxtail; type: in vivo, Setaria faberii
How it was run: as §1

morningglory = test: Test B pre/postemergence morningglory; type: in vivo, Ipomoea hederacea
How it was run: as §1

pigweed = test: Test B pre/postemergence pigweed; type: in vivo, Amaranthus retroflexus
How it was run: as §1

rape = test: Test B pre/postemergence rape; type: in vivo, Brassica napus
How it was run: as §1

soybean = test: Test B pre/postemergence soybean; type: in vivo, Glycine max
How it was run: as §1

sugar beet = test: Test B pre/postemergence sugar beet; type: in vivo, Beta vulgaris
How it was run: as §1

velvetleaf = test: Test B pre/postemergence velvetleaf; type: in vivo, Abutilon theophrasti
How it was run: as §1

wheat = test: Test B pre/postemergence wheat; type: in vivo, Triticum aestivum
How it was run: as §1

wild oat = test: Test B pre/postemergence wild oat; type: in vivo, Avena fatua
How it was run: as §1

purple nutsedge = test: Test B pre/postemergence purple nutsedge; type: in vivo, Cyperus rotundus
How it was run: as §1

[1] = Postemergence, Rate 62 g/ha, scale 0 to 10, 0 is no effect, 10 is complete control
[2] = Postemergence, Rate 125 g/ha, scale of 0 to 10 where 0 is no effect and 10 is complete control
[3] = Preemergence, Rate 62 g/ha, scale of 0 to 10 where 0 is no effect and 10 is complete control
[4] = Preemergence, Rate 125 g/ha, scale of 0 to 10 where 0 is no effect and 10 is complete control
[5] = Preemergence, Rate 250 g/ha, scale 0 (no effect) to 10 (complete control)
[6] = Preemergence, Rate 500 g/ha, scale of 0 to 10 where 0 is no effect and 10 is complete control
[7] = Rate 250 g/ha, Postemergence, scale 0 to 10, 0 is no effect, 10 is complete control
[8] = Rate 500 g/ha, Postemergence, scale 0 to 10, 0 is no effect, 10 is complete control

For `CC(=O)OCC(CCl)n1c(=O)on(C(=O)N(c2ccc(F)cc2F)C(C)C)c1=O` (racemic) [Compound 708], which “Plant response rating, Bedstraw” value (bedstraw; [1]) is on record?
Its value is 0.

What about the “Bedstraw plant response rating” value (bedstraw; [2]) of the same compound?
The value was 0.

And the “Bedstraw plant response rating” value (bedstraw; [3])?
Its value is 0.

And the “Plant response rating, Bedstraw” value (bedstraw; [4])?
Its value is 0.

And the “Bedstraw plant response rating” value (bedstraw; [5])?
The value was 0.

And the “Plant response rating, Bedstraw” value (bedstraw; [6])?
Its value is 0.

What about the “Plant response rating, Blackgrass” value (blackgrass; [1]) of the same compound?
Its value is 0.

What about the “Blackgrass plant response rating” value (blackgrass; [2]) of the same compound?
The value was 0.

And the “Blackgrass plant response rating” value (blackgrass; [3])?
Its value is 0.

And the “Plant response rating, Blackgrass” value (blackgrass; [4])?
The value was 2.

What about the “Blackgrass plant response rating” value (blackgrass; [5]) of the same compound?
Its value is 3.

What about the “Plant response rating, Blackgrass” value (blackgrass; [6]) of the same compound?
Its value is 5.

What about the “Blackgrass plant response rating” value (blackgrass; [7]) of the same compound?
Its value is 2.

And the “Blackgrass plant response rating” value (blackgrass; [8])?
The value was 2.

What about the “Plant response rating, B. signalgrass” value (surinam grass; [1]) of the same compound?
Its value is 0.

What about the “B. signalgrass plant response rating” value (surinam grass; [2]) of the same compound?
Its value is 0.

And the “B. signalgrass plant response rating” value (surinam grass; [3])?
Its value is 0.

What about the “Plant response rating, B. signalgrass” value (surinam grass; [4]) of the same compound?
The value was 0.

What about the “B. signalgrass plant response rating” value (surinam grass; [5]) of the same compound?
The value was 0.

And the “Plant response rating, B. signalgrass” value (surinam grass; [6])?
The value was 0.

And the “B. signalgrass plant response rating” value (surinam grass; [7])?
The value was 0.

What about the “B. signalgrass plant response rating” value (surinam grass; [8]) of the same compound?
The value was 2.

What about the “Plant response rating, Cocklebur” value (cocklebur; [1]) of the same compound?
The value was 0.

And the “Cocklebur plant response rating” value (cocklebur; [2])?
Its value is 0.

And the “Cocklebur plant response rating” value (cocklebur; [3])?
The value was 0.

What about the “Plant response rating, Cocklebur” value (cocklebur; [4]) of the same compound?
Its value is 0.

And the “Cocklebur plant response rating” value (cocklebur; [5])?
Its value is 0.

And the “Plant response rating, Cocklebur” value (cocklebur; [6])?
Its value is 0.

And the “Cocklebur plant response rating” value (cocklebur; [7])?
Its value is 0.

What about the “Cocklebur plant response rating” value (cocklebur; [8]) of the same compound?
The value was 0.

And the “Plant response rating, Corn” value (corn; [1])?
Its value is 0.

And the “Corn plant response rating” value (corn; [2])?
Its value is 0.

And the “Corn plant response rating” value (corn; [3])?
The value was 0.

What about the “Plant response rating, Corn” value (corn; [4]) of the same compound?
Its value is 0.

What about the “Corn plant response rating” value (corn; [5]) of the same compound?
Its value is 0.

What about the “Corn plant response rating” value (corn; [7]) of the same compound?
The value was 0.

And the “Corn plant response rating” value (corn; [8])?
The value was 0.

And the “Plant response rating, Crabgrass” value (crabgrass; [1])?
Its value is 0.

What about the “Crabgrass plant response rating” value (crabgrass; [2]) of the same compound?
Its value is 0.

And the “Crabgrass plant response rating” value (crabgrass; [3])?
Its value is 6.

What about the “Plant response rating, Crabgrass” value (crabgrass; [4]) of the same compound?
The value was 7.

And the “Crabgrass plant response rating” value (crabgrass; [5])?
The value was 10.

What about the “Crabgrass plant response rating” value (crabgrass; [7]) of the same compound?
The value was 0.

And the “Crabgrass plant response rating” value (crabgrass; [8])?
The value was 4.

And the “Plant response rating, Giant foxtail” value (giant foxtail; [1])?
The value was 0.

What about the “Giant foxtail plant response rating” value (giant foxtail; [2]) of the same compound?
Its value is 2.

And the “Giant foxtail plant response rating” value (giant foxtail; [3])?
The value was 5.

What about the “Plant response rating, Giant foxtail” value (giant foxtail; [4]) of the same compound?
The value was 7.

What about the “Giant foxtail plant response rating” value (giant foxtail; [5]) of the same compound?
The value was 8.

What about the “Giant foxtail plant response rating” value (giant foxtail; [7]) of the same compound?
The value was 4.

What about the “Giant foxtail plant response rating” value (giant foxtail; [8]) of the same compound?
Its value is 5.

What about the “Plant response rating, Morningglory” value (morningglory; [1]) of the same compound?
Its value is 0.

And the “Morningglory plant response rating” value (morningglory; [2])?
The value was 2.

And the “Morningglory plant response rating” value (morningglory; [3])?
Its value is 0.

And the “Plant response rating, Morningglory” value (morningglory; [4])?
Its value is 0.

And the “Morningglory plant response rating” value (morningglory; [5])?
Its value is 0.

And the “Morningglory plant response rating” value (morningglory; [7])?
The value was 2.

What about the “Morningglory plant response rating” value (morningglory; [8]) of the same compound?
Its value is 5.

And the “Plant response rating, Redroot pigweed” value (pigweed; [1])?
The value was 0.

What about the “Redroot pigweed plant response rating” value (pigweed; [2]) of the same compound?
The value was 0.

What about the “Redroot pigweed plant response rating” value (pigweed; [3]) of the same compound?
Its value is 0.

And the “Plant response rating, Redroot pigweed” value (pigweed; [4])?
Its value is 3.

And the “Redroot pigweed plant response rating” value (pigweed; [7])?
Its value is 0.

And the “Redroot pigweed plant response rating” value (pigweed; [8])?
The value was 5.

What about the “Plant response rating, Rape” value (rape; [1]) of the same compound?
The value was 0.

And the “Rape plant response rating” value (rape; [2])?
Its value is 0.

What about the “Rape plant response rating” value (rape; [3]) of the same compound?
Its value is 0.

What about the “Plant response rating, Rape” value (rape; [4]) of the same compound?
Its value is 0.

And the “Rape plant response rating” value (rape; [5])?
Its value is 0.

What about the “Rape plant response rating” value (rape; [7]) of the same compound?
The value was 0.

What about the “Rape plant response rating” value (rape; [8]) of the same compound?
Its value is 0.

What about the “Plant response rating, Soybean” value (soybean; [1]) of the same compound?
The value was 3.

And the “Soybean plant response rating” value (soybean; [2])?
Its value is 4.

And the “Soybean plant response rating” value (soybean; [3])?
Its value is 0.

What about the “Plant response rating, Soybean” value (soybean; [4]) of the same compound?
The value was 0.

And the “Soybean plant response rating” value (soybean; [5])?
Its value is 0.

And the “Soybean plant response rating” value (soybean; [7])?
Its value is 4.

What about the “Soybean plant response rating” value (soybean; [8]) of the same compound?
The value was 4.

And the “Plant response rating, Sugarbeets” value (sugar beet; [1])?
The value was 0.

And the “Sugarbeets plant response rating” value (sugar beet; [2])?
Its value is 0.

And the “Sugarbeets plant response rating” value (sugar beet; [3])?
Its value is 0.

And the “Plant response rating, Sugarbeets” value (sugar beet; [4])?
The value was 0.

What about the “Sugarbeets plant response rating” value (sugar beet; [5]) of the same compound?
Its value is 0.

What about the “Sugarbeets plant response rating” value (sugar beet; [7]) of the same compound?
The value was 0.

And the “Sugarbeets plant response rating” value (sugar beet; [8])?
The value was 0.

And the “Plant response rating, Velvetleaf” value (velvetleaf; [1])?
The value was 0.

What about the “Velvetleaf plant response rating” value (velvetleaf; [2]) of the same compound?
Its value is 0.

And the “Velvetleaf plant response rating” value (velvetleaf; [3])?
The value was 0.

And the “Plant response rating, Velvetleaf” value (velvetleaf; [4])?
The value was 0.

What about the “Velvetleaf plant response rating” value (velvetleaf; [5]) of the same compound?
The value was 2.

What about the “Velvetleaf plant response rating” value (velvetleaf; [7]) of the same compound?
The value was 3.

And the “Velvetleaf plant response rating” value (velvetleaf; [8])?
Its value is 5.

What about the “Plant response rating, Wheat” value (wheat; [1]) of the same compound?
Its value is 0.

What about the “Wheat plant response rating” value (wheat; [2]) of the same compound?
The value was 0.

And the “Wheat plant response rating” value (wheat; [3])?
Its value is 0.

And the “Plant response rating, Wheat” value (wheat; [4])?
Its value is 0.

What about the “Wheat plant response rating” value (wheat; [5]) of the same compound?
Its value is 0.

And the “Wheat plant response rating” value (wheat; [7])?
The value was 0.

And the “Wheat plant response rating” value (wheat; [8])?
The value was 0.

And the “Plant response rating, Wild oats” value (wild oat; [1])?
Its value is 0.

And the “Wild oats plant response rating” value (wild oat; [2])?
Its value is 0.

And the “Wild oats plant response rating” value (wild oat; [3])?
The value was 0.

And the “Plant response rating, Wild oats” value (wild oat; [4])?
Its value is 0.

What about the “Wild oats plant response rating” value (wild oat; [5]) of the same compound?
Its value is 0.

And the “Wild oats plant response rating” value (wild oat; [7])?
The value was 0.

What about the “Wild oats plant response rating” value (wild oat; [8]) of the same compound?
The value was 0.

What about the “Plant response rating, Nutsedge” value (purple nutsedge; [1]) of the same compound?
Its value is 0.

What about the “Nutsedge plant response rating” value (purple nutsedge; [2]) of the same compound?
The value was 0.

And the “Plant response rating, Nutsedge” value (purple nutsedge; [4])?
The value was 0.

And the “Nutsedge plant response rating” value (purple nutsedge; [5])?
Its value is 0.

What about the “Nutsedge plant response rating” value (purple nutsedge; [7]) of the same compound?
Its value is 0.

What about the “Nutsedge plant response rating” value (purple nutsedge; [8]) of the same compound?
The value was 0.
